Test results reported in BigSolDB 2.1.

C#C[C@]1(O)CC[C@H]2[C@@H]3CCC4=CC(=O)CC[C@@H]4[C@H]3C(=C)C[C@@]21CC
solubility (mole fraction)
Settings	in DMF	in THF	in acetone	in ethanol	in ethyl acetate	in isopropanol	in methyl acetate	in n-butanol	in n-propanol	in water
273.15 K	0.0757	0.0739	0.012	0.0017	0.0189	0.00463	0.0104	0.00421	0.00452	1.38e-05
278.15 K	0.0792	0.0891	0.0133	0.00209	0.022	0.00545	0.0119	0.00514	0.00514	1.64e-05
283.15 K	0.0825	0.106	0.0148	0.00249	0.0249	0.00633	0.0135	0.00615	0.00585	1.92e-05
288.15 K	0.0865	0.125	0.0165	0.00293	0.0291	0.00731	0.0153	0.00742	0.00657	2.24e-05
293.15 K	0.0888	0.148	0.0184	0.00343	0.0338	0.00851	0.017	0.00904	0.00753	2.6e-05
298.15 K	0.0965	0.173	0.0198	0.00412	0.0383	0.00994	0.019	0.0109	0.00865	3.1e-05
303.15 K	0.0974	0.2	0.0224	0.00494	0.043	0.0115	0.0211	0.0126	0.00974	3.65e-05
308.15 K	0.101	0.223	0.0248	0.00593	0.0476	0.0132	0.0229	0.0148	0.0112	4.25e-05
313.15 K	0.105	0.263	0.0273	0.00695	0.0539	0.0154	0.025	0.0171	0.0124	4.91e-05
318.15 K	0.109	0.299	0.03	0.00817	0.059	0.0178	0.0271	0.0198	0.0142	5.62e-05
323.15 K	0.115	0.332	0.0335	0.00967	0.0648	0.0209	0.0294	0.0227	0.0159	6.37e-05
